In patent publication US20250320184A1 (SIRONAX LTD., priority 2022, published 2025):

biological target: T1, SARM1 (50-724) (Homo sapiens, UniProt Q6SZW1); test: biochemical
T1 sequence (Q6SZW1 50-724): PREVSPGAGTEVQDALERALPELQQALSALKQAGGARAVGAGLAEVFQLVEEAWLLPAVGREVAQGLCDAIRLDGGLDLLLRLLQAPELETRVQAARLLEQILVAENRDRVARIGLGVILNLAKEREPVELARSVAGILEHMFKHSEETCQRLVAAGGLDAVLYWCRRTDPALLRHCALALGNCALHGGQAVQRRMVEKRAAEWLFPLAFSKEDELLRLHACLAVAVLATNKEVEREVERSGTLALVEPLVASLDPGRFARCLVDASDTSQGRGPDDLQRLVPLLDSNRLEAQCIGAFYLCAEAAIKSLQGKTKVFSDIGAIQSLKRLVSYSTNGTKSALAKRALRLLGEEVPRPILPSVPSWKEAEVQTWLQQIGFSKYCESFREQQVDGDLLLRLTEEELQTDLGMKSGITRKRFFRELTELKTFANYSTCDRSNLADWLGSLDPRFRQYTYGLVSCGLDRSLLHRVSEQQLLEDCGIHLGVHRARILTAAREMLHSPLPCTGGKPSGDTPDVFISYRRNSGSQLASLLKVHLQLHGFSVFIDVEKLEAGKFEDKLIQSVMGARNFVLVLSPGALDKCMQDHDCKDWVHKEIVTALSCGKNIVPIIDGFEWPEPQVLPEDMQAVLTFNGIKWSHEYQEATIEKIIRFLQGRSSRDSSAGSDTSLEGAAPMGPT
Experimental: An enzymatic assay was performed in a 384-well plate using Dulbecco's phosphate-buffered saline (PBS) as the reaction buffer. […] The reaction was initiated by adding a mixture of 200 μM nicotinamide mononucleotide (NMN) as activator and 100 μM NAD^+ as substrate. After 1 h of incubation at room temperature, the reaction was terminated with 10 times volume of 70% acetonitrile, then centrifuged at 3800 rpm for 10 min.

Row | IC50 [µM] | Compound
1 | < 0.1 | O=c1[nH]ccc2ccc(NS(=O)(=O)c3ccc(F)c(Cl)c3Cl)cc12 [Compound 69, 2,3-dichloro-4-fluoro-N-(1-oxo-1,2-dihydroisoquinolin-7-yl)benzenesulfonamide]
2 | < 0.1 | O=c1[nH]ccc2ccc(NS(=O)(=O)c3c(F)ccc(Cl)c3Cl)cc12 [Compound 70, 2,3-dichloro-6-fluoro-N-(1-oxo-1,2-dihydroisoquinolin-7-yl)benzenesulfonamide]
3 | 0.1 to 0.5 | Cc1ccc2ccc(NS(=O)(=O)c3cccc(Cl)c3Cl)cc2n1 [Compound 71, 2,3-dichloro-N-(2-methylquinolin-7-yl)benzenesulfonamide]
4 | < 0.1 | Cc1c2ccc(NS(=O)(=O)c3cccc(Cl)c3Cl)cc2nn1C [Compound 72, 2,3-dichloro-N-(2,3-dimethyl-2H-indazol-6-yl)benzenesulfonamide]
5 | < 0.1 | Cc1n[nH]c2cc(NS(=O)(=O)c3cccc(Cl)c3Cl)cc(F)c12 [Compound 73, 2,3-dichloro-N-(4-fluoro-3-methyl-1H-indazol-6-yl)benzenesulfonamide]
6 | 0.1 to 0.5 | O=S(=O)(Nc1cc(F)c2cn[nH]c2c1)c1cccc(Cl)c1Cl [Compound 74, 2,3-dichloro-N-(4-fluoro-1H-indazol-6-yl)benzenesulfonamide]
7 | < 0.1 | O=S(=O)(Nc1ccc2c(F)n[nH]c2c1)c1cccc(Cl)c1Cl [Compound 75, 2,3-dichloro-N-(3-fluoro-1H-indazol-6-yl)benzenesulfonamide]
8 | 0.1 to 0.5 | O=S(=O)(Nc1cc2ccccc2cn1)c1cccc(Cl)c1Cl [Compound 76, 2,3-dichloro-N-(isoquinolin-3-yl)benzenesulfonamide]
9 | 0.1 to 0.5 | Cn1cnc2cc(NS(=O)(=O)c3cccc(Cl)c3Cl)ccc21 [Compound 77, 2,3-dichloro-N-(1-methyl-1H-benzo[d]imidazol-5-yl)benzenesulfonamide]
10 | < 0.1 | O=S(=O)(Nc1ccc2c(Cl)n[nH]c2c1)c1cccc(Cl)c1Cl [Compound 78, 2,3-dichloro-N-(3-chloro-1H-indazol-6-yl)benzenesulfonamide]
11 | 0.1 to 0.5 | Cn1ncc2cc(NS(=O)(=O)c3cccc(Cl)c3Cl)ccc21 [Compound 79, 2,3-dichloro-N-(1-methyl-1H-indazol-5-yl)benzenesulfonamide]
12 | 0.1 to 0.5 | N#CCn1ccc2ccc(NS(=O)(=O)c3cccc(Cl)c3Cl)cc2c1=O [Compound 80, 2,3-dichloro-N-(2-(cyanomethyl)-1-oxo-1,2-dihydroisoquinolin-7-yl)benzenesulfonamide]
13 | < 0.1 | Cc1n[nH]c2cc(NS(=O)(=O)c3c(Cl)ccc(Cl)c3Cl)ccc12 [Compound 81, 2,3,6-trichloro-N-(3-methyl-1H-indazol-6-yl)benzenesulfonamide]
14 | < 0.1 | O=c1[nH]cnc2ccc(NS(=O)(=O)c3c(Cl)ccc(Cl)c3Cl)cc12 [Compound 82, 2,3,6-trichloro-N-(4-oxo-3H-quinazolin-6-yl)benzenesulfonamide]
15 | 0.1 to 0.5 | O=S(=O)(Nc1cccc(-c2cnccn2)c1)c1cccc(Cl)c1Cl [Compound 83, 2,3-dichloro-N-(3-pyrazin-2-ylphenyl)benzenesulfonamide]
16 | < 0.1 | O=C1CCCc2ccc(NS(=O)(=O)c3cccc(Cl)c3Cl)cc2N1 [Compound 84, 2,3-dichloro-N-(2-oxo-2,3,4,5-tetrahydro-1H-benzo[b]azepin-8-yl)benzenesulfonamide]
17 | 0.1 to 0.5 | N#Cc1cccc2ccc(NS(=O)(=O)c3cccc(Cl)c3Cl)cc12 [Compound 85, 2,3-dichloro-N-(8-cyanonaphthalen-2-yl)benzenesulfonamide]
18 | 0.1 to 0.5 | COc1ccc(NS(=O)(=O)c2cccc(Cl)c2Cl)cc1C(N)=O [Compound 86, 5-((2,3-dichlorophenyl)sulfonamido)-2-methoxybenzamide]
19 | 0.1 to 0.5 | NC(=O)c1cccc2ccc(NS(=O)(=O)c3cccc(Cl)c3Cl)cc12 [Compound 87, 7-((2,3-dichlorophenyl)sulfonamido)-1-naphthamide]
20 | < 0.1 | O=S(=O)(Nc1ccc2c(C3CC3)n[nH]c2c1)c1cccc(Cl)c1Cl [Compound 88, 2,3-dichloro-N-(3-cyclopropyl-1H-indazol-6-yl)benzenesulfonamide]
21 | 0.1 to 0.5 | COc1cc2cc(NS(=O)(=O)c3cccc(Cl)c3Cl)ccc2cn1 [Compound 89, 2,3-dichloro-N-(3-methoxyisoquinolin-6-yl)benzenesulfonamide]
22 | < 0.1 | O=c1[nH]cc(Cl)c2ccc(NS(=O)(=O)c3cccc(Cl)c3Cl)cc12 [Compound 91, 2,3-dichloro-N-(4-chloro-1-oxo-1,2-dihydroisoquinolin-7-yl)benzenesulfonamide]

Row | IC50 [µM] | Compound
23 | 0.1 to 0.5 | C[C@H](Nc1ccc2ccnc(O)c2c1)c1cccc(Cl)c1 [Compound 92, (S)-7-((1-(3-chlorophenyl)ethyl)amino)isoquinolin-1-ol]
24 | > 1 | Cc1cc(F)cc(C(Nc2ccc3c(c2)C(=O)NCC3)c2cccnc2)c1 (stereo not shown) [Compound 178]
25 | < 0.1 | Cc1c[nH]c(=O)c2cc(NS(=O)(=O)c3cccc(Cl)c3Cl)ccc12 [Compound 188, 2,3-dichloro-N-(4-methyl-1-oxo-1,2-dihydroisoquinolin-7-yl)benzenesulfonamide]
26 | < 0.1 | CC1CNC(=O)c2cc(NS(=O)(=O)c3cccc(Cl)c3Cl)ccc21 (stereo not shown) [Compound 189]
27 | < 0.1 | Cc1c(Br)cccc1S(=O)(=O)Nc1ccc2cc[nH]c(=O)c2c1 [Compound 191, 3-bromo-2-methyl-N-(1-oxo-1,2-dihydroisoquinolin-7-yl)benzenesulfonamide]
28 | < 0.1 | O=c1[nH]cc(Cl)c2ccc(NS(=O)(=O)c3c(Cl)ccc(Cl)c3Cl)cc12 [Compound 197, 2,3,6-trichloro-N-(4-chloro-1-oxo-1,2-dihydroisoquinolin-7-yl)benzenesulfonamide]
29 | < 0.1 | CC(Nc1ccc2nc[nH]c(=O)c2c1)c1nc(Cl)c(Cl)s1 (stereo not shown) [Compound 202, 6-((1-(4,5-dichlorothiazol-2-yl)ethyl)amino)quinazolin-4(3H)-one]
30 | < 0.1 | CC1(C)C(=O)Nc2cc(NS(=O)(=O)c3cccc(Cl)c3Cl)ccc21 [Compound 204, 2,3-dichloro-N-(3,3-dimethyl-2-oxo-indolin-6-yl)benzenesulfonamide]
31 | 0.1 to 0.5 | O=C1NCCOc2ccc(NS(=O)(=O)c3cccc(Cl)c3Cl)cc21 [Compound 206, 2,3-dichloro-N-(5-oxo-3,4-dihydro-2H-1,4-benzoxazepin-7-yl)benzenesulfonamide]
32 | < 0.1 | O=C1Nc2cc(NS(=O)(=O)c3cccc(Cl)c3Cl)ccc2C12CC2 [Compound 208, 2,3-dichloro-N-(2′-oxospiro[cyclopropane-1,3′-indolin]-6′-yl)benzenesulfonamide]
33 | < 0.1 | CC1(C)C(=O)Nc2cc(NS(=O)(=O)c3c(Cl)ccc(Cl)c3Cl)ccc21 [Compound 209, 2,3,6-trichloro-N-(3,3-dimethyl-2-oxoindolin-6-yl)benzenesulfonamide]
34 | < 0.1 | CN1C(=O)C(C)(C)c2ccc(NS(=O)(=O)c3cccc(Cl)c3Cl)cc21 [Compound 211, 2,3-dichloro-N-(1,3,3-trimethyl-2-oxoindolin-6-yl)benzenesulfonamide]
35 | < 0.1 | O=C1Nc2cc(NS(=O)(=O)c3cccc(Cl)c3Cl)ccc2C12CCCC2 [Compound 212, 2,3-dichloro-N-(2′-oxospiro[cyclopentane-1,3′-indolin]-6′-yl)benzenesulfonamide]
36 | 0.1 to 0.5 | O=C1Cc2ccc(NS(=O)(=O)c3cccc(Cl)c3Cl)cc2CN1 [Compound 217, 2,3-dichloro-N-(3-oxo-1,2,3,4-tetrahydroisoquinolin-7-yl)benzenesulfonamide]
37 | < 0.1 | CC1(C)CNc2cc(NS(=O)(=O)c3cccc(Cl)c3Cl)ccc21 [Compound 219, 2,3-dichloro-N-(3,3-dimethylindolin-6-yl)benzenesulfonamide]
38 | < 0.1 | CC(=O)N1CC(C)(C)c2ccc(NS(=O)(=O)c3cccc(Cl)c3Cl)cc21 [Compound 220, N-(1-acetyl-3,3-dimethyl-indolin-6-yl)-2,3-dichloro-benzenesulfonamide]
39 | < 0.1 | O=C1Nc2cc(NS(=O)(=O)c3cccc(Cl)c3Cl)ccc2CO1 [Compound 224, 2,3-dichloro-N-(2-oxo-1,4-dihydro-2H-benzo[d][1,3]oxazin-7-yl)benzenesulfonamide]
40 | 0.1 to 0.5 | Cn1c(C(N)=O)nc2cc(NS(=O)(=O)c3cccc(Cl)c3Cl)ccc21 [Compound 225, 5-((2,3-dichlorophenyl)sulfonamido)-1-methyl-1H-benzo[d]imidazole-2-carboxamide]
41 | < 0.1 | CC1(C)NC(=O)c2cc(NS(=O)(=O)c3cccc(Cl)c3Cl)ccc21 [Compound 227, 2,3-dichloro-N-(1,1-dimethyl-3-oxoisoindolin-5-yl)benzenesulfonamide]
42 | < 0.1 | CC1C(=O)Nc2cc(NS(=O)(=O)c3cccc(Cl)c3Cl)ccc21 (stereo not shown) [Compound 235]
43 | < 0.1 | CC1(C)C(=O)N(CCO)c2cc(NS(=O)(=O)c3cccc(Cl)c3Cl)ccc21 [Compound 240, 2,3-dichloro-N-(1-(2-hydroxyethyl)-3,3-dimethyl-2-oxoindolin-6-yl)benzenesulfonamide]
